Test results as given in US20240190824A1, “INHIBITORS OF TREK (TWIK RELATED K+ CHANNELS) CHANNEL FUNCTION” (ONO PHARMACEUTICAL CO., LTD., priority 2019, published 2024).
pIC50: −log10 of the molar value.

Molecular target: human TREK-1 (Homo sapiens (Human), UniProt O95069)
Assay: TREK-1 Thallium (Tl+) flux assay
Format: cell-based
Conditions: CHO-K1 cells stably expressing human TREK-1

Chain of human TREK-1 (O95069 whole entry): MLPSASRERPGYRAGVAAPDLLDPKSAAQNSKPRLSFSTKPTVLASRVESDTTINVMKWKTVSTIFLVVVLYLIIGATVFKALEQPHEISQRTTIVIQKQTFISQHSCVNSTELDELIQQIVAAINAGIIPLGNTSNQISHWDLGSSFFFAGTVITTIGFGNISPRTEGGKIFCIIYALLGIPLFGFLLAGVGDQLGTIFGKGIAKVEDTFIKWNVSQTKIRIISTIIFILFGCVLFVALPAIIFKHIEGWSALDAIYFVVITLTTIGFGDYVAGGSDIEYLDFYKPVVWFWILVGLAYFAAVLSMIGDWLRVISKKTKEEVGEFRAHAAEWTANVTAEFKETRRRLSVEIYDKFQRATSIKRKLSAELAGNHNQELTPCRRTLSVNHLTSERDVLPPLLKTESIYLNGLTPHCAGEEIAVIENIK

Structure (SMILES)	pIC50
Cc1cc(C#Cc2ccccc2)cnc1NC(=O)c1cc(-c2cnn(C)c2)ccc1Cl [Compound 78, 2-chloro-N-[3-methyl-5-(2-phenylethynyl)-2-pyridyl]-5-(1-methylpyrazol-4-yl)benzamide]	6.33
Cc1cc(C#Cc2cccc(F)c2)nc(C)c1NC(=O)c1cc(NC(=O)[C@H]2C[C@@H]2C)ccc1Cl [Compound 49, 2-chloro-N-[6-[2-(3-fluorophenyl)ethynyl]-2,4-dimethyl-3-pyridyl]-5-[[(1S,2S)-2-methylcyclopropanecarbonyl]amino] benzamide]	5.96
Cc1cc(C#Cc2ccccc2)cnc1NC(=O)c1cc(OC[C@H]2COCCO2)ccc1Cl [Compound 21, 2-chloro-5-[[(2R)-1,4-dioxan-2-yl]methoxy]-N-[3-methyl-5-(2-phenylethynyl)-2-pyridyl]benzamide]	6.96
Cc1cc(-c2noc(-c3ccc(F)cc3)n2)cnc1NC(=O)c1cc(NC(=O)OC(C)(C)C)ccc1Cl [Compound 95, tert-butyl N-[4-chloro-3-[[5-[5-(4-fluorophenyl)-1,2,4-oxadiazol-3-yl]-3-methyl-2-pyridyl]carbamoyl]phenyl]carbamate]	6.64
Cc1cc(C#Cc2ccccc2)cnc1NC(=O)c1cc(NC(=O)[C@H]2C[C@@H]2C)ccc1Cl [Compound 27, 2-chloro-5-[[(1S,2S)-2-methylcyclopropanecarbonyl]amino]-N-[3-methyl-5-(2-phenylethynyl)-2-pyridyl]benzamide]	7.00
Cc1cc(C#Cc2ccccc2)cnc1NC(=O)c1nc(NC(=O)OC(C)(C)C)ccc1Cl [Compound 43, tert-butyl N-[5-chloro-6-[[3-methyl-5-(2-phenylethynyl)-2-pyridyl]carbamoyl]-2-pyridyl]carbamate]	6.26
Cc1cc(-c2cnn(-c3ccc(F)cc3)c2)cnc1NC(=O)c1cc(NC(=O)OC(C)(C)C)ccc1Cl [Compound 94, tert-butyl N-[4-chloro-3-[[5-[1-(4-fluorophenyl)pyrazol-4-yl]-3-methyl-2-pyridyl]carbamoyl]phenyl]carbamate]	6.70
Cc1cc(-c2ccc(-c3ccccc3)s2)cnc1NC(=O)c1cc(NC(=O)OC(C)(C)C)ccc1Cl [Compound 99, tert-butyl N-[4-chloro-3-[[3-methyl-5-(5-phenyl-2-thienyl)-2-pyridyl]carbamoyl]phenyl]carbamate]	5.74
Cc1cc(C#Cc2ccccn2)cnc1NC(=O)c1cc(NC(=O)OC(C)(C)C)ccc1Cl [Compound 15, tert-butyl N-[4-chloro-3-[[3-methyl-5-[2-(2-pyridyl)ethynyl]-2-pyridyl]carbamoyl]phenyl]carbamate]	6.43
CC1CC1C(=O)Nc1ccc(Cl)c(C(=O)Nc2ncc(C#Cc3ccccc3)cc2F)c1 (stereo not shown) [Compound 3, 2-chloro-N-[3-fluoro-5-(2-phenylethynyl)-2-pyridyl]-5-[(2-methylcyclopropanecarbonyl)amino]benzamide]	7.15
Cc1cc(C#Cc2ccccc2)cnc1NC(=O)c1cc(-c2cnn(C3CCOCC3)c2)ccc1Cl [Compound 65, 2-chloro-N-[3-methyl-5-(2-phenylethynyl)-2-pyridyl]-5-(1-tetrahydropyran-4-ylpyrazol-4-yl)benzamide]	6.70
Cc1cc(C#Cc2ccccc2)cnc1N1Cc2ccc(OCC3COCCO3)cc2C1=O (stereo not shown) [Compound 81, 6-(1,4-dioxan-2-ylmethoxy)-2-[3-methyl-5-(2-phenylethynyl)-2-pyridyl]isoindolin-1-one]	6.44
Cc1cc(C#Cc2ccccc2)cnc1NC(=O)c1cc(OCCN2CCOCC2)ccc1Cl [Compound 84, 2-chloro-N-[3-methyl-5-(2-phenylethynyl)-2-pyridyl]-5-(2-morpholinoethoxy)benzamide]	6.38
CCn1ccc(-c2ccc(Cl)c(C(=O)Nc3ncc(C#Cc4ccccc4)cc3C)c2)n1 [Compound 64, 2-chloro-5-(1-ethylpyrazol-3-yl)-N-[3-methyl-5-(2-phenylethynyl)-2-pyridyl]benzamide]	6.70
Cc1cc(OCc2ccccc2)ccc1NC(=O)c1ccc(N)cc1Cl [Compound 89, 4-amino-N-(4-(benzyloxy)-2-methylphenyl)-2-chlorobenzamide]	5.12
O=C(Nc1ncc(C#Cc2ccccc2)cc1F)c1cc(-c2cnn(C3CCOCC3)c2)ccc1Cl [Compound 55, 2-chloro-N-[3-fluoro-5-(2-phenylethynyl)-2-pyridyl]-5-(1-tetrahydropyran-4ylpyrazol-4-yl)benzamide]	7.00
Cc1cc(C#Cc2ccccc2)cnc1NC(=O)c1cc(C(=O)N2CC(F)C2)ccc1Cl [Compound 73, 2-chloro-5-(3-fluoroazetidine-1-carbonyl)-N-[3-methyl-5-(2-phenylethynyl)-2-pyridyl]benzamide]	6.41
O=C(Nc1ncc(-c2ccn(-c3ccc(F)cc3)n2)cc1F)c1cc(NC(=O)C2COCCO2)ccc1Cl (stereo not shown) [Compound 98, N-[4-chloro-3-[[3-fluoro-5-[1-(4-fluorophenyl)pyrazol-3-yl]-2-pyridyl]carbamoyl]phenyl]1,4-dioxane-2-carboxamide]	6.25
Cc1noc(-c2ccc(Cl)c(C(=O)Nc3ncc(C#Cc4ccccc4)cc3C)c2)n1 [Compound 63, 2-chloro-5-(3-methyl-1,2,4-oxadiazol-5-yl)-N-[3-methyl-5-(2-phenylethynyl)-2-pyridyl]benzamide]	6.70

Structure (SMILES)	pIC50
Cc1cc(C#Cc2ccccc2)cnc1NC(=O)c1cc(NC(=O)OC(C)(C)C)cnc1Cl [Compound 52, tert-butyl N-[6-chloro-5-[[3-methyl-5-(2-phenylethynyl)-2-pyridyl]carbamoyl]-3-pyridyl]carbamate]	5.66
O=C(Nc1ncc(C#Cc2ccccc2)cc1F)c1cc(NC(=O)C2(F)CC2)ccc1Cl [Compound 6, 2-chloro-5-[(1-fluorocyclopropanecarbonyl)amino]-N-[3-fluoro-5-(2-phenylethynyl)-2-pyridyl]benzamide]	6.77
CC(C)(C)OC(=O)Nc1ccc(Cl)c(C(=O)Nc2ncc(-c3cc(-c4ccccc4)no3)cc2F)c1 [Compound 96, tert-butyl N-[4-chloro-3-[[3-fluoro-5-(3-phenylisoxazol-5-yl)-2-pyridyl]carbamoyl]phenyl]carbamate]	6.64
Cc1cc(C#Cc2ccccc2)cnc1NC(=O)c1cc(OC[C@@H]2COCCO2)ccc1Cl [Compound 23, 2-chloro-5-[[(2S)-1,4-dioxan-2-yl]methoxy]-N-[3-methyl-5-(2-phenylethynyl)-2-pyridyl]benzamide]	6.68
Cc1cc(C#Cc2ccccc2)cnc1NC(=O)c1cc(NC(=O)C2CC(C)(O)C2)ccc1Cl (stereo not shown) [Compound 32, 2-chloro-5-[(3-hydroxy-3-methyl-cyclobutanecarbonyl)amino]-N-[3-methyl-5-(2-phenylethynyl)-2-pyridyl]benzamide]	6.55
Cc1cc(OCc2ccccc2)cc(C)c1NC(=O)c1cc(NC(=O)OC(C)(C)C)ccc1Cl [Compound 88, tert-butyl (3-((4-(benzyloxy)-2,6-dimethylphenyl)carbamoyl)-4-chlorophenyl)carbamate]	6.44
Cc1cc(C#Cc2ccccc2)cnc1N1Cc2ccc(NC(=O)OC(C)(C)C)cc2C1=O [Compound 44, tert-butyl N-[2-[3-methyl-5-(2-phenylethynyl)-2-pyridyl]-3-oxo-isoindolin-5-yl]carbamate]	6.24
Cc1cc(C)n(C(=O)c2ccc(Cl)c(C(=O)Nc3ncc(C#Cc4ccccc4)cc3C)c2)n1 [Compound 72, 2-chloro-5-(3,5-dimethylpyrazole-1-carbonyl)-N-[3-methyl-5-(2-phenylethynyl)-2-pyridyl]benzamide]	6.44
Cc1cc(C#Cc2ccccc2)cnc1NC(=O)c1cc(-c2cnn(CCN3CCOCC3)c2)ccc1Cl [Compound 62, 2-chloro-N-[3-methyl-5-(2-phenylethynyl)-2-pyridyl]-5-[1-(2-morpholinoethyl)pyrazol-4-yl]benzamide]	6.77
Cn1cc(-c2ccc(Cl)c(C(=O)Nc3ncc(C#Cc4ccccc4)cc3F)c2)cn1 [Compound 59, 2-chloro-N-[3-fluoro-5-(2-phenylethynyl)-2-pyridyl]-5-(1-methylpyrazol-4-yl)benzamide]	6.89
Cc1cc(C#Cc2ccccc2)cnc1NC(=O)c1cc(-c2cn(C)nc2C)ccc1Cl [Compound 74, 2-chloro-5-(1,3-dimethylpyrazol-4-yl)-N-[3-methyl-5-(2-phenylethynyl)-2-pyridyl]benzamide]	6.39
Cc1cc(C#Cc2ccccc2)cnc1NC(=O)c1cc(NC(=O)C2COCCO2)ccc1Cl (stereo not shown) [Compound 31, N-[4-chloro-3-[[3-methyl-5-(2-phenylethynyl)-2-pyridyl]carbamoyl]phenyl]-1,4-dioxane-2-carboxamide]	6.59
Cc1cc(C#Cc2ccccc2)cnc1NC(=O)c1c(Cl)ccc(NC(=O)OC(C)(C)C)c1F [Compound 34, tert-butyl N-[4-chloro-2-fluoro-3-[[3-methyl-5-(2-phenylethynyl)-2-pyridyl]carbamoyl]phenyl]carbamate]	6.44
Cc1cc(C#Cc2ccccc2)cnc1NC(=O)c1cc(C(=O)N2CC(C)(C)C2)ccc1Cl [Compound 60, 2-chloro-5-(3,3-dimethylazetidine-1-carbonyl)-N-[3-methyl-5-(2-phenylethynyl)-2-pyridyl]benzamide]	6.85
O=C(Nc1ncc(C#Cc2ccc(F)cc2)cc1F)c1cc(NC(=O)C2CC2)ccc1Cl [Compound 7, 2-chloro-5-(cyclopropanecarbonylamino)-N-[3-fluoro-5-[2-(4-fluorophenyl)ethynyl]-2-pyridyl]benzamide]	6.82
Cc1cc(C#Cc2ccccc2)cnc1NC(=O)c1cc(OCC2COCCO2)ccc1Cl (stereo not shown) [Compound 22, 2-chloro-5-(1,4-dioxan-2-ylmethoxy)-N-[3-methyl-5-(2-phenylethynyl)-2-pyridyl]benzamide]	6.89
O=C(Nc1ncc(C#Cc2ccccc2)cc1F)c1cc(-c2noc(C3CCOC3)n2)ccc1Cl (stereo not shown) [Compound 54]	7.10
Cc1cc(C#Cc2ccccc2)cnc1NC(=O)c1cc(NC(=O)C2CC2)ccc1Cl [Compound 9, 2-chloro-5-(cyclopropanecarbonylamino)-N-[3-methyl-5-(2-phenylethynyl)-2-pyridyl]benzamide]	6.74
